Assay results published in article PMC4628998 (BioMed Research International, 2015).

Molecular target: T1, CK2α (Zea mays) (Zea mays, UniProt P28523)
T1 construct: gene ACK2; catalytic subunit CK2α alone
Test: radiometric peptide phosphorylation assay, residual activity at […]
Format: biochemical

T1 sequence (P28523 whole entry): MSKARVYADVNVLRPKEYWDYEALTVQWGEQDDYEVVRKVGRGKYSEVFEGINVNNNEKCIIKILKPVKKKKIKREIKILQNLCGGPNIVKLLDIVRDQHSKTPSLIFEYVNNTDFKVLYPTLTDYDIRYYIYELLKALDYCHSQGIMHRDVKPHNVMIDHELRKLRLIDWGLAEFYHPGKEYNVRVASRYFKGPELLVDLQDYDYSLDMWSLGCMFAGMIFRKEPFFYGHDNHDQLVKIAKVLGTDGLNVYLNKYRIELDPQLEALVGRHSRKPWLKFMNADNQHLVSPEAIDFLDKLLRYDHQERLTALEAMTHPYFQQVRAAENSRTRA

activity at 1 µM: 33%
SMILES: O=C1c2ccc(O)c(O)c2C(=O)c2c(O)ccc(O)c21 [quinalizarin, 1,2,5,8-tetrahydroxyanthraquinone]
